Results published in patent publication US9004752B2, “Method for evaluating the solubility of a crystalline substance in a polymer” (Abbvie, Inc., priority 2008, dated 2015).

What was measured:
[1] = assay type: physicochemical; settings: 30% w/w in PVP, initially amorphous, yielded crystals
Method: To set up an aging experiment, the sample was added into an open DSC pan and heated up on a microscope hot-stage (Linkam THMS 600) to Tm+20° C. under vacuum. The application of vacuum removed air bubbles trapped in the viscous melt. The pan was then quenched to room temperature, sealed immediately, and aged in an oven of known temperature.
To verify the solubility of D-mannitol in PVP obtained with the DSC method (Method I), we used two other solubility-indicating methods (FIG. 7). In the first (Method II), D-mannitol was mixed with PVP at a concentration higher than predicted. The mixture was then aged to see whether the supersaturated solution indeed crystallized over time. We tracked three indicators of crystallization: (a) the glass transition temperature Tg of the mixture, which is expected to increase when D-mannitol is removed from its mixture with PVP (FIG. 5); (b) the appearance of new endotherms with aging which correspond to the dissolution of newly crystallized D-mannitol; and (c) new crystals observable by polarized light microscopy. Modulated DSC (MDSC) was used to measure Tg. In the second method (Method III), D-mannitol was mixed with PVP at high enough concentration so that D-mannitol rapidly crystallized. […]
For Method II, D-mannitol was mixed with PVP by cryogenic milling at 30% w/w. […] The mixture was analyzed by DSC at times ranging from a few days to 155 days. […]

[2] = DSC dissolution-endpoint method (Method I): solubility of a crystalline substance in a polymer; settings: for solubility in PVP: by extrapolation
Method: In a typical procedure, 0.5-1 g of solute/polymer powder was milled at 10 Hz. Each cycle of milling was 2 min, followed by a 2 min cool-down. The cycle was repeated to achieve a desired milling time (16-60 min).
Standard and modulated differential scanning calorimetry (DSC) was conducted in hermetic aluminium pans using a TA Instruments DSC Q1000. 5-10 mg of the sample was packed into the pans. A pin hole was made in the lid to allow the escape of moisture. Standard DSC was performed at heating rates from 0.1 to 3° C./min. Modulated DSC was used to observe the glass transition of the amorphous phase at a heating rate of 2° C./min with the temperature modulating at ±0.5° C. every 60 second.
To further minimize the effect of slow dissolution on the measurement of equilibrium solubility, we measured Tend at several heating rates (FIG. 3) and obtained the Tend at zero heating rate by extrapolation (FIG. 4).
The larger the difference (Tend−Tg), the lower the viscosity of the solution in which D-mannitol completed its dissolution. […] For such systems, Tend changed rapidly and non-linearly with the heating rate, making the extrapolation to zero heating rate less certain. […] Despite this limitation the method enabled us to get sufficiently close to Tg to estimate the solubility of D-mannitol in PVP at Tg: by extrapolation. […] At 95° C., the saturated solution exists at the glass transition temperature.
As in the case of D-mannitol/PVP, cryomilling was used to prepare drug/polymer mixtures. […] As in the case of the D-mannitol/PVP, cryomilling facilitated the determination of dissolution endpoint.

state of the 30% solution in PVP on aging [1]: supersaturated
predicted solubility in PVP (Method I) ([2]; 105° C., temperature chosen for the validation tests): 15%
solubility in PVP ([2]; PVP K15, […]): 15 % w/w
solubility in PVP ([2]; PVP K15, at 95° C., […]): 10 % w/w
SMILES: OC[C@@H](O)[C@@H](O)[C@H](O)[C@H](O)CO [D-mannitol]
